In US20110172200A1, “USE OF INHIBITOR OF BETA-LACTAMASES AND ITS COMBINATION WITH BETA-LACTAM ANTIBIOTICS” (priority 2008, published 2011):
Where “and” joins values, the source holds several entries; their conditions need not be identical. Identical values can stand only once. Like-named read-outs stand apart in the source and are kept apart here.

Legend:
E. cloacae 4013 = assay: Broth microdilution susceptibility assay (MIC), strain S3; assay type: cell-based; conditions: duplicate, CAMHB, 35° C.; for MIC S3: 24 h; for MIC: Enterobacter cloacae, 4013, 24 h
Method: (§1) Representative inhibitor of beta-lactamases of formula (I) was evaluated against the bacterial strains producing serine-based class A beta-lactamases including CTX-M, TEM-type, SHV-type extended spectrum beta-lactamases (ESBL) and class C betalactamases (AmpC) as noted in Table 2.
(§2) Bacterial suspensions with a turbidity equivalent to that of a 0.5 McFarland standard were prepared by suspending a tiny portion of one colony from blood agar plates in 2 mL of sterile saline. Suspensions were further diluted with cation adjusted Mueller Hinton Broth (CAMHB) to obtain a final inoculum of 5×10^5 CFU/mL.
(§3) The in vitro activities of the antibiotics were determined by the broth microdilution method as recommended by CLSI guidelines.
(§4) MIC experiments were performed in duplicate in 96-well microtiter plates using CAMHB. Serial twofold dilutions of each antibiotic either alone or in combination with constant concentration ratio of LK-176 (2:1) and (10:1) were prepared in CAMHB. The bacterial suspension with final inoculum […] was transferred to the test medium containing the antibacterial substances. In each well of microtiter plate 50 μL of bacterial inoculum and 50 μL of antibiotic dilutions were combined. Each plate included 4 wells with no bacterial inoculum (negative control) and 4 wells with no test compound and no antibiotic (positive control). The plates were incubated at 35° C. for 24 h. Purity check and colony counts on each inoculum suspension was performed to ensure that the final inoculum concentration routinely obtained closely approximates 5×10^5 CFU/mL.

E. faecalis ATCC 29212 = assay: Broth microdilution susceptibility assay (MIC), strain S5; assay type: cell-based; conditions: duplicate, CAMHB, 35° C.; for MIC S5: 24 h; for MIC: Enterococcus faecalis, ATCC29212, 24 h
Method: as §1, §2, §3, §4

E. cloacae B275 (AmpC) = assay: Broth microdilution susceptibility assay (MIC), strain S2; assay type: cell-based; conditions: duplicate, CAMHB, 35° C., 24 h
Method: as §1, §2, §3, §4

[1] = tested on: E. caerogenes ATCC 29751 (class II); assay: Broth microdilution susceptibility assay (MIC), strain S4; assay type: cell-based; conditions: duplicate, CAMHB, 35° C., 24 h
Method: as §1, §2, §3, §4

E. cloacae B274 (AmpC) = assay: Broth microdilution susceptibility assay (MIC), strain S1; assay type: cell-based; conditions: CAMHB, 35° C., 24 h; for MIC: Enterobacter cloacae
Method: as §1, §2, §3, §4

[2] = tested on: K. pneumoniae ATCC 700603 (SHV-18); assay: Broth microdilution susceptibility assay (MIC), strain S7; assay type: cell-based; conditions: CAMHB, 35° C.; for MIC S7: 24 h; for MIC: Klebsiella pneumoniae, ATCC700603, 24 h
Method: as §1, §2, §3, §4

K. pneumoniae DSA 1461 = assay: Broth microdilution susceptibility assay (MIC), strain S6; assay type: cell-based; conditions: Table 2 lower part, duplicate, CAMHB, 35° C., 24 h
Method: as §1, §2, §3, §4

C. freundii B271 (SHV-5) = assay: Broth microdilution susceptibility assay (MIC), strain S8; assay type: cell-based; conditions: CAMHB, 35° C., 24 h; for MIC: Citrobacter freundii
Method: as §1, §2, §3, §4

C. freundii B318 (CTX-M) = assay: Broth microdilution susceptibility assay (MIC), strain S9; assay type: cell-based
Method: as §1, §2, §3, §4

strains S1-S9 = assay: Broth microdilution susceptibility assay (MIC), all strains; assay type: cell-based; conditions: strains deemed as resistant to LK-176 alone
Method: as §1, §2, §3
as §4, with “The plates were incubated at 35° C. for 24 h. Purity check and colony counts on each inoculum suspension was performed to ensure that the final inoculum concentration routinely obtained closely approximates 5×10^5 CFU/mL.” left out

[3] = target: class C beta-lactamase P99 (AmpC) (Enterobacter cloacae, UniProt P05364); assay: IC50 determination with nitrocefin as reporter substrate, P99; assay type: biochemical
Chain of class C beta-lactamase P99 (AmpC) (P05364 21-381): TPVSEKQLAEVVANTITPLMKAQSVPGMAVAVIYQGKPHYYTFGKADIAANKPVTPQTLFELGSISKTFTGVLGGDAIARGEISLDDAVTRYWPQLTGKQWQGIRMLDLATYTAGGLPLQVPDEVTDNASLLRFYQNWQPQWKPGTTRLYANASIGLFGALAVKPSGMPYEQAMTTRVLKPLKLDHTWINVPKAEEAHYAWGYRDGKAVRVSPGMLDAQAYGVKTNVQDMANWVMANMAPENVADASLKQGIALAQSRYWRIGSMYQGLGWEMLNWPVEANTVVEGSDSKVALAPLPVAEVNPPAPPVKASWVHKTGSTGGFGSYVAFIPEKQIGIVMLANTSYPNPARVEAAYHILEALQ
Method: (§5) The IC50 value represents the concentration of inhibitor required to effect a 50% loss of activity of free enzyme. A standard test for the production of beta-lactamase involves use of the chromogenic cephalosporin, nitrocefin.
(§6) Homogeneously purified class A beta-lactamases TEM-1 and SHV-1 from E. coli and class C enzyme P99 from Enterobacter cloaca were employed in the assay.
(§7) All the enzymes and compounds were dissolved in 50 mM phosphate buffer pH 7.0 and all further dilutions were done with the same buffer solution. Enzyme and compound dilutions were pre-incubated for 30 min at 37° C. and in a final volume of 500 μl. Than 10 μl of 5 mM nitrocefin (reporter substrate) was added to the solution and the absorbance at 482 nm was measured during 2 to 5 minutes. The initial rate was calculated for all the different solutions. The […] values were determined as the inhibitor concentration that gave an initial hydrolysis rate of nitrocefin equal to 50% of the hydrolysis rate of nitrocefin in absence of inhibitor.
(§8) Representative compounds of formula (I) were evaluated as inhibitors of beta-lactamases of TEM-1 and SHV-1 (class A, penicillinase) from E. coli and P-99 (class C, cephalosporinase) from Enterobacter cloacae, by relative IC50 analysis using a procedure similar to that described above.

[4] = target: class A beta-lactamase TEM-1 (Escherichia coli, UniProt P62593); assay: IC50 determination with nitrocefin as reporter substrate, TEM-1; assay type: biochemical, E. coli; conditions: 30 min pre-incubation at 37° C., phosphate buffer pH 7.0, nitrocefin
Chain of class A beta-lactamase TEM-1 (P62593 24-286 limits assumed): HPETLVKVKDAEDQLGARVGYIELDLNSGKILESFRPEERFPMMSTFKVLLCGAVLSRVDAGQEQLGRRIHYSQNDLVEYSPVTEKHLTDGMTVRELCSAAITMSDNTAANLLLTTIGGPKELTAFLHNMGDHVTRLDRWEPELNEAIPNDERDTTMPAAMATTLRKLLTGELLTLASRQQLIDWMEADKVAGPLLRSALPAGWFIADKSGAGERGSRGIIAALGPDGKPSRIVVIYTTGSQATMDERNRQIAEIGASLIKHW
Method: as §5, §6, §7, §8

[5] = target: class A beta-lactamase SHV-1 (Escherichia coli, UniProt P0AD63); assay: IC50 determination with nitrocefin as reporter substrate, SHV-1; assay type: biochemical, E. coli
Chain of class A beta-lactamase SHV-1 (P0AD63 22-286): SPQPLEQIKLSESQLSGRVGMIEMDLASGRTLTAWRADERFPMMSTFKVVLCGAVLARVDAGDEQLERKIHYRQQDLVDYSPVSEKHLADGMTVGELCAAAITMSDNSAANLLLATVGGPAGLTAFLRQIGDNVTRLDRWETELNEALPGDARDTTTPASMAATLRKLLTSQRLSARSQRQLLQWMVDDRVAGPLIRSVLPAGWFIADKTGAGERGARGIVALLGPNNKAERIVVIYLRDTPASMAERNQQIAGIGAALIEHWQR
Method: as §5, §6, §7, §8

AmpC = conditions: cited from earlier work
[6] = single and repeated doses, i.v. and oral, healthy subjects; cited from earlier work
[7] = Table 2 upper part, duplicate (two lines per substance)
[8] = Table 2 lower part, duplicate, CAMHB, 35° C., 24 h

SMILES: CO/N=C(\C(=O)N[C@@H]1C(=O)N2C(C(=O)O)=C(COC(C)=O)CS[C@H]12)c1csc(N)n1 [Cefotaxime (OTA), cefotaxime]
- MIC S3 (E. cloacae 4013; Table 2 upper part): 64 µg/mL
- MIC S5 (E. faecalis ATCC 29212; Table 2 upper part): 16 µg/mL
- MIC S2 (E. cloacae B275 (AmpC); Table 2 upper part): 128 µg/mL
- MIC S4 ([1]; Table 2 upper part): 8 µg/mL
- MIC S1 (E. cloacae B274 (AmpC); [7]): 128 µg/mL

SMILES: CO/N=C(\C(=O)N[C@@H]1C(=O)N2C(C(=O)O)=C(CSc3nc(=O)c(O)nn3C)CS[C@H]12)c1csc(N)n1 [Ceftriaxone (TRI), ceftriaxone]
- MIC S3 (E. cloacae 4013; Table 2 lower part): 32 µg/mL
- MIC S7 ([2]; Table 2 lower part, duplicate): 8 µg/mL
- MIC S5 (E. faecalis ATCC 29212; Table 2 lower part): >128 µg/mL
- MIC S2 (E. cloacae B275 (AmpC); Table 2 lower part): 64 µg/mL
- MIC S6 (K. pneumoniae DSA 1461): >128 µg/mL and 128 µg/mL
- MIC S8 (C. freundii B271 (SHV-5); Table 2 lower part, duplicate): 32 µg/mL
- MIC S4 ([1]; Table 2 lower part): 8 µg/mL
- MIC S1 (E. cloacae B274 (AmpC); Table 2 lower part, duplicate): 128 µg/mL

SMILES: CO/N=C(\C(=O)N[C@@H]1C(=O)N2C(C(=O)O)=C(COC(N)=O)CS[C@H]12)c1ccco1 [Cefuroxime (URO), cefuroxime]
- MIC S3 (E. cloacae 4013; Table 2 lower part): >128 µg/mL
- MIC S7 ([2]; Table 2 lower part, duplicate): 64 µg/mL and 32 µg/mL
- MIC S5 (E. faecalis ATCC 29212; Table 2 lower part): 64 µg/mL and 32 µg/mL
- MIC S9 (C. freundii B318 (CTX-M)): 128 µg/mL
- MIC S2 (E. cloacae B275 (AmpC); Table 2 lower part): >128 µg/mL
- MIC S6 (K. pneumoniae DSA 1461): >128 µg/mL
- MIC S8 (C. freundii B271 (SHV-5); Table 2 lower part, duplicate): 128 µg/mL
- MIC S4 ([1]; Table 2 lower part): 128 µg/mL
- MIC S1 (E. cloacae B274 (AmpC); Table 2 lower part, duplicate): >128 µg/mL

SMILES: CC(C)(O/N=C(\C(=O)N[C@@H]1C(=O)N2C(C(=O)[O-])=C(C[n+]3ccccc3)CS[C@H]12)c1csc(N)n1)C(=O)O [Ceftazidime (TAZ), ceftazidime]
- MIC S3 (E. cloacae 4013; Table 2 upper part): 128 µg/mL
- MIC S5 (E. faecalis ATCC 29212; Table 2 upper part): 16 µg/mL
- MIC S2 (E. cloacae B275 (AmpC); Table 2 upper part): >128 µg/mL
- MIC S4 ([1]; Table 2 upper part): 16 µg/mL
- MIC S1 (E. cloacae B274 (AmpC); [7]): >128 µg/mL

SMILES: CCN1CCN(C(=O)N[C@@H](C(=O)N[C@@H]2C(=O)N3[C@@H]2SC(C)(C)[C@@H]3C(=O)O)c2ccccc2)C(=O)C1=O [Piperacillin (PIP), piperacillin]
- MIC S3 (E. cloacae 4013; Table 2 lower part): >128 µg/mL
- MIC S7 ([2]; Table 2 lower part, duplicate): >128 µg/mL
- MIC S5 (E. faecalis ATCC 29212; Table 2 lower part): 16 µg/mL
- MIC S9 (C. freundii B318 (CTX-M); [8]): 128 µg/mL
- MIC S2 (E. cloacae B275 (AmpC); Table 2 lower part): >128 µg/mL
- MIC S6 (K. pneumoniae DSA 1461): >128 µg/mL
- MIC S8 (C. freundii B271 (SHV-5); Table 2 lower part, duplicate): >128 µg/mL
- MIC S4 ([1]; Table 2 lower part): 32 µg/mL
- MIC S1 (E. cloacae B274 (AmpC); Table 2 lower part, duplicate): >128 µg/mL

SMILES: CO[C@H]1CCC[C@H]2C1=C(C(=O)O)N1C(=O)C(C(C)O)[C@@H]21 (stereo partly drawn) [LK-176, (4S,8S,9R)-4-methoxy-10-(1-Hydroxyethyl)-11-oxo-1-azatricyclo-[7.2.0.0 (3,8)]undec-2-ene-2-carboxylic acid]
- MIC (E. cloacae 4013; Table 2 lower part): 64 µg/mL
- MIC (E. cloacae 4013; Table 2 upper part): 64 µg/mL
- MIC S3 (E. cloacae 4013; Table 2 lower part): 32 µg/mL
- MIC ([2]; Table 2 lower part, duplicate): > 128 µg/mL
- MIC ([2]; Table 2 upper part, column 6, duplicate): 16 µg/mL
- MIC S7 ([2]; Table 2 lower part, duplicate): 128 µg/mL
- MIC values of LK-176 alone, all strains S1-S9 (strains S1-S9): above 16 mg/L
- IC50 [3]: 0.15 nM
- MIC (E. faecalis ATCC 29212; Table 2 lower part): 64 µg/mL
- MIC (E. faecalis ATCC 29212; Table 2 upper part): 32 µg/mL
- MIC S9 (C. freundii B318 (CTX-M); [8]): 32 µg/mL
- MIC (E. cloacae B275 (AmpC); Enterobacter cloacae, Table 2 lower part): 64 µg/mL
- MIC (K. pneumoniae DSA 1461; Klebsiella pneumoniae, DSA1461): 16 µg/mL
- MIC (C. freundii B271 (SHV-5); Table 2 lower part, duplicate): 64 µg/mL
- MIC (C. freundii B271 (SHV-5); Table 2 upper part, column 7, duplicate): 128 µg/mL
- MIC ([1]; Table 2 lower part): 16 µg/mL
- MIC ([1]; Table 2 upper part): 32 µg/mL
- MIC (E. cloacae B274 (AmpC); Table 2 lower part, duplicate): 32 µg/mL
- MIC (E. cloacae B274 (AmpC); [7]): 32 µg/mL
- MIC S1 (E. cloacae B274 (AmpC); Table 2 lower part, duplicate): 16 µg/mL
- IC50 [4]: 15 nM
- IC50 [5]: 200 nM

SMILES: CO/N=C(\C(=O)N[C@@H]1C(=O)N2C(C(=O)[O-])=C(C[N+]3(C)CCCC3)CS[C@H]12)c1csc(N)n1 [Cefepime (EPI), cefepime]
- MIC S5 (E. faecalis ATCC 29212; Table 2 upper part): 32 µg/mL and 16 µg/mL

SMILES: C=CC1=C(C(=O)O)N2C(=O)[C@@H](NC(=O)/C(=N\OCC(=O)O)c3csc(N)n3)[C@H]2SC1 [cefixime]
- kcat values of AmpC (AmpC): 10 s⁻¹

SMILES: CO[C@H]1CCC[C@H]2C1=C(C(=O)O)N1C(=O)[C@H]([C@@H](C)O)[C@@H]21 [sanfetrinem]
- Safety and tolerability [6]: good tolerability
- kcat values of AmpC (AmpC): 0.00033 s⁻¹
